The values below come from patent US10640535B2, “Identification of MHC class I phospho-peptide antigens from breast cancer utilizing SHLA technology and complementary enrichment strategies” (Agenus Inc., priority 2012, dated 2020).

The assay deals with phosphopeptide-specific CTL. Briefly: Recognition of naturally processed phosphopeptides on cancer cell lines by phosphopeptide-specific CTL (murine IFNγ ELISA). It is filed as cell-based. Conditions: 24 hours with COV413.AAD.A4, DM331.AAD.A4, SLM2.AAD.A1, MCF7.AAD.A2, MDAMB231.AAD cancer lines and JY EBV-BLCL control. The method, then:
FIG. 1, comprising FIGS. 1A and 1B, is a graphic illustration of the recognition of naturally processed and presented phosphorylated peptides on cancer cells by the phosphopeptide-specific CTL. Phosphopeptide-specific CTL were incubated with the following cancer cell lines or EBV-transformed B lymphoblastoid cell lines (BLCL): COV413.AAD.A4 ovarian carcinoma, DM331.AAD.A4 and SLM2.AAD.A1 melanomas, MCF7.AAD.A2 and MDAMB231.AAD breast carcinomas, and JY EBV-BLCL. Supernatants were harvested and evaluated for the presence of murine IFNγ (produced by murine CTL lines). […] The ordinate indicates murine IFNγ in pg/ml. The abscissa indicates each cell line.
CTL specific for two of the antigen peptides were generated by long term culture with the peptides. Two CTL lines specific for the antigen peptide GLLGpSPVRA, lines 6850 and 6960, SEQ ID NO: 13, and two CTL lines specific for the antigen peptide RVApSPTSGV, SEQ ID NO: 14, lines 5183 and 63 were used to detect these two antigen peptides on cancer cells. […] Supernatants were harvested 24 hours later and evaluated for the presence of murine IFN[…] (produced by murine CTL lines) by ELISA (eBioscience Ready-Set-go murine IFN[…] ELISA kit).
For orientation: An ELISA detects its analyte on a solid surface through an enzyme-linked reagent.

Non-standard residues stand in square brackets, D forms with d. No end group written: not given here. pS = N[C@@H](COP(=O)(O)O)C(=O)O

Consider “GLLGpSPVRA (GLLG[pS]PVRA; listed as Homo sapiens) [phosphopeptide from CDC25b:p63, HLA-A2.1]”, for which the “recognition of the phosphopeptide on cell lines by phosphopeptide-specific CTL (murine IFNγ in supernatant)” value (CTL lines 6850 and 6960, FIG. 1A) is listed as “recognize the phosphopeptide on all the cancer cell lines, but not the control cell line”.

Regarding “RVApSPTSGV (RVA[pS]PTSGV; listed as Homo sapiens) [phosphopeptide from Insulin receptor substrate-2, HLA-A2.1]”, the “recognition of the phosphopeptide on cell lines by phosphopeptide-specific CTL (murine IFNγ in supernatant)” value (CTL lines 5183 and 63, FIG. 1B) was “recognize the phosphopeptide on all the cancer cell lines, but not the control cell line”.
